Read-outs that look alike come from different tables or passages of the source.
Assays:
DYRK1A [1] = settings: reported, cited from earlier work
NCI-H727 = assay: Cell survival assay, NCI-H727; assay type: cell-based; settings: Homo sapiens, 48 h exposure, nuclei count, read-out: Cell Lines IC50 NCI-H727
Description: (§1) Skin diploid fibroblastic cells were provided by BIOPREDIC International Company (Rennes, France). […] Cells were grown according to ECACC recommendations. The toxicity test of the compounds on these cells was as follows: 2 × 10^3 cells for HCT-116 cells or 4 × 10^3 for the other cells were seeded in 96-multi-well plates in triplicate and left for 24 h for attachment, spreading and growing. Then, cells were exposed for 48 h to increasing concentrations of the compounds, ranging from […], in a final volume of 120 μL of culture medium. […] The IC50 were graphically determined.

MDA-MB231 = assay: Cell survival assay, MDA-MB231; assay type: cell-based; settings: Homo sapiens, MDA-MB-231; 48 h exposure, nuclei count; read-out: Cell Lines IC50 MDA-MB231
Description: as §1

DYRK1A [2] = target: T1, DYRK1A (Rattus norvegicus, UniProt Q63470); assay: DYRK1A kinase assay; assay type: biochemical; settings: 15 μM ATP
T1 construct: GST; made in house; host or cells: Escherichia coli
Description: (§2) The twenty-two (5Z) 5-arylidene-2-thioxo-1,3-thiazolidin-4-ones 3a–v and the twenty-four (5Z) 2-amino-5-arylidene-1,3-thiazolidin-4(5H)-ones 5a–x were evaluated against four different and representative in vitro kinase assays DYRK1A (dual specificity tyrosine phosphorylation regulated kinase), CK1 δ/e (caseine kinase 1), CDK5/p25 (cyclin dependant kinase), and GSK3 α/β (glycogen synthase kinase 3) to evaluate their inhibition potency. […] All the compounds were initially tested at a 10 μM concentration.
After 30-min incubation at 30 °C, the reaction was stopped by harvesting, using a FilterMate harvester (Packard), onto P81 phospho-cellulose papers (GE Healthcare, Chicago, IL, USA) which were washed in 1% phosphoric acid. Scintillation fluid was added and the radioactivity measured in a Packard counter. Blank values were subtracted and activities calculated as pmoles of phosphate incorporated for the 30-min incubation. The activities were expressed in % of the maximal activity, i.e., in the absence of inhibitors. Controls were performed with appropriate dilutions of DMSO. […]

HCT116 = assay: Cell survival assay, HCT116; assay type: cell-based; settings: Homo sapiens, HCT-116
Description: as §1

PC3 = assay: Cell survival assay, PC3; assay type: cell-based; settings: Homo sapiens, PC-3; 48 h exposure, nuclei count; read-out: Cell Lines IC50 PC3
Description: as §1

Casein kinase 1 (CK1δ/ε) = assay: CK1δ/ε kinase assay; assay type: biochemical, porcine; settings: 15 μM ATP, read-out: IC50 CK1
Description: as §2
(§3) After 30-min incubation at 30 °C, the reaction was stopped by harvesting, using a FilterMate harvester (Packard), onto P81 phospho-cellulose papers (GE Healthcare, Chicago, IL, USA) which were washed in 1% phosphoric acid. Scintillation fluid was added and the radioactivity measured in a Packard counter. Blank values were subtracted and activities calculated as pmoles of phosphate incorporated for the 30-min incubation. The activities were expressed in % of the maximal activity, i.e., in the absence of inhibitors. Controls were performed with appropriate dilutions of DMSO.
Casein kinase 1 (CK1δ/ε) (porcine brain, native) was assayed with 0.67 µg of CKS peptide ([…]pSAYSITA), a CK1 specific substrate obtained from Millegen (Labege, France).

Huh7 D12 = assay: Cell survival assay, Huh7 D12; assay type: cell-based; settings: Huh-7D12; 48 h exposure, nuclei count; read-out: Cell Lines IC50 Huh7 D12
Description: as §1

Caco2 = assay: Cell survival assay, Caco2; assay type: cell-based; settings: Homo sapiens, Caco-2
Description: as §1

Fibroblasts = assay: Cell survival assay, normal skin diploid fibroblasts; assay type: cell-based; settings: Fibroblast; normal cells, 48 h exposure, nuclei count; read-out: Cell Lines IC50 Fibroblasts
Description: as §1

GSK-3α/β = GSK-3α/β kinase assay; assay type: biochemical, porcine; settings: 15 μM ATP, read-out: IC50 GSK3α/β
Description: as §2, §3
GSK-3α/β (porcine brain, native) was assayed, as described for CDK5/p25 but in Buffer A and using a GSK-3 specific substrate (GS-1: […]pEDEEE) (pS stands for phosphorylated serine). GS-1 was synthesized by Millegen (Labege, France).

CDK5/p25 = target: T2, CDK5/p25 (Homo sapiens, UniProt Q00535); assay: CDK5/p25 kinase assay; assay type: biochemical; settings: 15 μM ATP
T2 construct: made in house
T2 sequence (Q00535 whole entry): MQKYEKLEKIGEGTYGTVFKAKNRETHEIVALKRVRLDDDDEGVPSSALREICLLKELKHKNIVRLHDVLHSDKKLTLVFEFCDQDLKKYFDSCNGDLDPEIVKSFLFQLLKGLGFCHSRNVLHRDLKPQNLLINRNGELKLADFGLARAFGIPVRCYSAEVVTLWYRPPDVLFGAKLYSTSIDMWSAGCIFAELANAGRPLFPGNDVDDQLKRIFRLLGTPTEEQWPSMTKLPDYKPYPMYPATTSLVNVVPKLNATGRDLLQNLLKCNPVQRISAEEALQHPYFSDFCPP
T2 sequence (Q15078 99-307 partner limits assumed): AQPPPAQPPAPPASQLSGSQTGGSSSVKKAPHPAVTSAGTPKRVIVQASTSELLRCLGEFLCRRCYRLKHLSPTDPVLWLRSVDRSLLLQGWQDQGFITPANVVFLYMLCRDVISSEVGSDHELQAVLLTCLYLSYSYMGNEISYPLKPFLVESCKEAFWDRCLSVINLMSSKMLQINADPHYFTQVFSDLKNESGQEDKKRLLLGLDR
Description: as §2, §3
CDK5/p25 (human, recombinant) was prepared as previously described. […] ATP (3000 Ci/mmol; 10 mCi/mL) in a final volume of 30 μL. After 30-min incubation at 30 °C, 25 μL aliquots of supernatant were spotted onto 2.5 × 3 cm pieces of Whatman P81 phospho-cellulose paper, and, 20 s later, the filters were washed five times (for at least 5 min each time) in a solution of 10 mL phosphoric acid/litter of water. The wet filters were counted in the presence of 1 mL ACS (Amersham, UK) scintillation fluid.

[3] = 48 h exposure, nuclei count, read-out: Cell Lines IC50 HCT116
[4] = 48 h exposure, nuclei count, read-out: Cell Lines IC50 Caco2

Row | IC50 (DYRK1A [2]; Table 4) [µM] | IC50 (Casein kinase 1 (CK1δ/ε); Table 4) [µM] | IC50 (GSK-3α/β; Table 4) [µM] | IC50 (CDK5/p25; Table 4) [µM] | Compound | IC50 (DYRK1A [1]) [µM] | other results
1 | – | – | – | – | Nc1ncc(I)c(-c2c[nH]c3ccccc23)n1 [Meridianine 74] | 0.066 | –
3 | – | – | – | – | O=C1NC(Nc2ccccc2)=N/C1=C\c1ccc2c(c1)OCO2 [Leucettine L41] | – | IC50 (DYRK1A [1]; Figure 1): 0.04 µM
4 | – | – | – | – | COc1cc(C)c(-c2c3c4cc(OC)c(O)cc4oc(=O)c3n3ccc4cc(O)c(OC)cc4c23)cc1O [XII] | 0.042 | –
5 | 0.064 | ≥ 10 | 8 | – | COc1cc(/C=C2\SC(=S)NC2=O)ccc1O [Compound 3c, (5Z)-5-(4-Hydroxy-3-methoxybenzylidene)-2-thioxo-1,3-thiazolidin-4-one] | – | IC50 (NCI-H727): > 25 µM; IC50 (MDA-MB231): > 25 µM; IC50 (HCT116; [3]): 12 µM; IC50 (PC3): > 25 µM; IC50 (Huh7 D12): > 25 µM; IC50 (Caco2; [4]): > 25 µM; IC50 (Fibroblasts): > 25 µM
6 | – | – | – | – | CN(Cc1cccs1)c1ncnc2ccc(-c3ccc4c(c3)OCO4)cc12 [VI] | 0.014 | –
7 | – | – | – | – | O=c1oc2ccc(O)cc2c2c1[nH]c1ccc(O)cc12 [XI] | 0.067 | –
8 | 0.09 | > 10 | ≥ 10 | > 10 | O=C1NC(=S)S/C1=C\c1ccc2c(c1)CCO2 [Compound 3g, (5Z)-5-(2,3-Dihydro-benzofuran-5-ylmethylene)-2-thioxo-1,3-thiazolidin-4-one] | – | IC50 (NCI-H727): > 25 µM; IC50 (MDA-MB231): > 25 µM; melting point: 250 to 252 °C; IC50 (HCT116; [3]): > 25 µM; IC50 (HCT116; read-out: IC50 HCT 116): 6 µM; IC50 (PC3): > 25 µM; IC50 (Huh7 D12): > 25 µM; IC50 (Caco2; [4]): > 25 µM; IC50 (Caco2; read-out: IC50 Caco2): 8 µM; IC50 (Fibroblasts): > 25 µM
9 | > 10 | > 10 | > 10 | > 10 | O=C1NC(=S)S/C1=C\c1ccc(O)c(O)c1 [Compound 3j, (5Z)-5-(3,4-Dihydroxybenzylidene)-2-thioxo-1,3-thiazolidin-4-one] | – | melting point: 210 to 212 °C
10 | 0.07 | > 10 | 8.5 | > 10 | O=C1NC(=S)S/C1=C\c1ccc2c(c1)OCO2 [Compound 3a, (5Z)-5-(1,3-Benzodioxol-5-ylmethylene)-2-thioxo-1,3-thiazolidin-4-one] | – | IC50 (NCI-H727): > 25 µM; IC50 (MDA-MB231): > 25 µM; IC50 (HCT116; [3]): > 25 µM; IC50 (PC3): > 25 µM; IC50 (Huh7 D12): > 25 µM; IC50 (Caco2; [4]): > 25 µM; IC50 (Fibroblasts): > 25 µM
11 | 1.4 | > 10 | > 10 | > 10 | COc1ccc(/C=C2\SC(=S)NC2=O)cc1O [Compound 3b, (5Z)-5-(3-Hydroxy-4-methoxybenzylidene)-2-thioxo-1,3-thiazolidin-4-one] | – | IC50 (NCI-H727): > 25 µM; IC50 (MDA-MB231): > 25 µM; melting point: 222 to 224 °C; IC50 (HCT116; [3]): > 25 µM; IC50 (PC3): > 25 µM; IC50 (Huh7 D12): > 25 µM; IC50 (Caco2; [4]): > 25 µM; IC50 (Fibroblasts): > 25 µM
12 | 0.7 | > 10 | > 10 | > 10 | O=C1NC(=S)S/C1=C\c1cc(Br)c2c(c1)OCO2 [Compound 3i, (5Z)-5-[(7-Bromo-1,3-benzodioxol-5-yl)methylene]-2-thioxo-1,3-thiazolidin-4-one] | – | melting point: > 260 °C
13 | – | – | – | – | Nc1nccc(-c2c[nH]c3nccc(O)c23)n1 [Merioline 2] | 0.029 | –
14 | > 10 | > 10 | > 10 | > 10 | O=C1NC(=S)S/C1=C\c1cc(O)cc(O)c1 [Compound 3k, (5Z)-5-(3,5-Dihydroxybenzylidene)-2-thioxo-1,3-thiazolidin-4-one] | – | melting point: 230 to 232 °C
15 | 15 | > 10 | – | > 10 | O=C1NC(=S)S/C1=C\c1cc2ccccc2o1 [Compound 3l, (5Z)-5-(1-Benzofuran-2-ylmethylene)-2-thioxo-1,3-thiazolidin-4-one] | – | melting point: 246 to 250 °C
16 | – | – | – | – | O=C1N=C(Nc2ccc(Cl)cc2)S/C1=C\c1ccc2c(c1)OCO2 [Compound 5v, (5Z)-5-Benzo[1,3]dioxol-5-ylmethylene-2-(4-chloro-phenylamino)-1,3-thiazol-4(5H)-one] | – | IC50 (DYRK1A [2]; Table 5): 9 µM; IC50 (Casein kinase 1 (CK1δ/ε); Table 5): > 10 µM; IC50 (CDK5/p25; Table 5): > 10 µM; IC50 (GSK-3α/β; Table 5): > 10 µM
17 | – | – | – | – | O=C1N=C(N2CCN(Cc3ccc4c(c3)OCO4)CC2)S/C1=C\c1ccc2c(c1)OCO2 [Compound 5j, (5Z)-5-(1,3-Benzodioxol-5-ylmethylene)-2-[1-(1,3-benzodioxol-5-ylmethyl)piperazin-1-yl]-1,3-thiazol-4(5H)-one] | – | IC50 (DYRK1A [2]; Table 5): ≥ 10 µM; IC50 (Casein kinase 1 (CK1δ/ε); Table 5): > 10 µM; IC50 (CDK5/p25; Table 5): > 10 µM; IC50 (GSK-3α/β; Table 5): > 10 µM
18 | – | – | – | – | c1csc(CNc2ncnc3ccc(-c4ccc5c(c4)OCO5)cc23)c1 [V] | 0.062 | –
19 | > 10 | > 10 | > 10 | > 10 | O=C(NN1C(=O)/C(=C/c2ccc3c(c2)OCO3)SC1=S)c1ccccc1 [Compound 3p, (5Z)-N-(5-Benzo[1,3]dioxol-5-ylmethylene-4-oxo-2-thioxo-thiazolidin-3-yl)-benzamide] | – | –
20 | – | – | – | – | 2-(pyridin-3-yl)-1H-indol-6-ol | 0.06 | –
21 | 0.35 | > 10 | 1.6 | > 10 | O=C1NC(=S)S/C1=C\c1cccc(-c2ccc3c(c2)OCO3)n1 [Compound 3h, (5Z)-5-{[6-(1,3-Benzodioxol-5-yl)pyridin-2-yl]methylene}-2-thioxo-1,3-thiazolidin-4-one] | – | –
22 | – | – | – | – | O=C1N=C(N2CCCCC2)S/C1=C\c1ccc2c(c1)OCO2 [Compound 5i, (5Z)-5-(1,3-Benzodioxol-5-ylmethylene)-2-(piperidin-1-yl)-1,3-thiazol-4(5H)-one] | – | IC50 (DYRK1A [2]; Table 5): 0.053 µM; IC50 (Casein kinase 1 (CK1δ/ε); Table 5): > 10 µM; IC50 (CDK5/p25; Table 5): > 10 µM; IC50 (GSK-3α/β; Table 5): 7.4 µM
23 | > 10 | > 10 | > 10 | > 10 | NN1C(=O)/C(=C/c2ccc3c(c2)OCO3)SC1=S [Compound 3o, (5Z)-3-Amino-5-benzo[1,3]dioxol-5-ylmethylene-2-thioxo-thiazolidin-4-one] | – | –
24 | > 10 | > 10 | > 10 | > 10 | O=C(CCc1ccccc1)NN1C(=O)/C(=C/c2ccc3c(c2)OCO3)SC1=S [Compound 3r, (5Z)-N-(5-Benzo[1,3]dioxol-5-ylmethylene-4-oxo-2-thioxo-thiazolidin-3-yl)-3-phenyl-propionamide] | – | –
25 | – | – | – | – | O=C1N=C(N2CCSCC2)S/C1=C\c1ccc2c(c1)OCO2 [Compound 5g, (5Z)-5-(1,3-Benzodioxol-5-ylmethylene)-2-(thiomorpholin-1-yl)-1,3-thiazol-4(5H)-one] | – | IC50 (DYRK1A [2]; Table 5): 0.4 µM; IC50 (Casein kinase 1 (CK1δ/ε); Table 5): > 10 µM; IC50 (CDK5/p25; Table 5): > 10 µM; IC50 (GSK-3α/β; Table 5): ≥ 10 µM

From PMC8623179, “Design and Microwave Synthesis of New (5Z) 5-Arylidene-2-thioxo-1,3-thiazolinidin-4-one and (5Z) 2-Amino-5-arylidene-1,3-thiazol-4(5H)-one as New Inhibitors of Protein Kinase DYRK1A” (Pharmaceuticals, 2021)
